Measurements: ChEMBL document CHEMBL4376834, “Discovery of 4H-Chromen-4-one Derivatives as a New Class of Selective Rho Kinase (ROCK) Inhibitors, which Showed Potent Activity in ex Vivo Diabetic Retinopathy Models” (J Med Chem, 2019)

How the values were obtained:
[1] = target: Ribosomal protein S6 kinase alpha-3 (Homo sapiens, UniProt P51812); test: Inhibition of recombinant human Rsk2 (2 to end residues) using KKKNRTLSVA as substrate incubated for 40 mins in presence of [gamma33P]ATP by radiometric scintillation counting analysis
Sequence of Ribosomal protein S6 kinase alpha-3 (P51812 whole entry): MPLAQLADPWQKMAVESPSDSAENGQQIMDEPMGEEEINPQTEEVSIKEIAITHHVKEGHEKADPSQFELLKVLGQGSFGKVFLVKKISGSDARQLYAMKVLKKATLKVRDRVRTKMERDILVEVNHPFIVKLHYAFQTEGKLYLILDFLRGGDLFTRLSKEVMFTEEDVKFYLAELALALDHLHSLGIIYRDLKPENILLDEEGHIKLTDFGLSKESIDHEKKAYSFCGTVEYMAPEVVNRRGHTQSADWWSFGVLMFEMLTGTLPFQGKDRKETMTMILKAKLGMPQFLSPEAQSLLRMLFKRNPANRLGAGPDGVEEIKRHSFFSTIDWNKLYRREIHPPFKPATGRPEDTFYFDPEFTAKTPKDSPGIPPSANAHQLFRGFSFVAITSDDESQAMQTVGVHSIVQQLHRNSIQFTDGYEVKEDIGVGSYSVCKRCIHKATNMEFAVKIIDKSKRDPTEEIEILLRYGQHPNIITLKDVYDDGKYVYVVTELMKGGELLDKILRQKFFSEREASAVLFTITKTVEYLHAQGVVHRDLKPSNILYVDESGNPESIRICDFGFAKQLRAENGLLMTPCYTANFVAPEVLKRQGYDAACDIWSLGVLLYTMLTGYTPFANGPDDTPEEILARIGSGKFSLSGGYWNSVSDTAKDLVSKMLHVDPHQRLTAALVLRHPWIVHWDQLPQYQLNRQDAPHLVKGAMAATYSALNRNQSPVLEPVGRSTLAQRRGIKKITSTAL

[2] = Inhibition of recombinant full length human PKBalpha S478G mutant using GRPRTSSFAEGKK as substrate incubated for 40 mins in presence of [gamma33P]ATP by radiometric scintillation counting analysis
[3] = Inhibition of human PKA using Kemptide as substrate incubated for 40 mins in presence of [gamma-33P]ATP by radiometric scintillation counting analysis
[4] = target: Receptor-type tyrosine-protein kinase FLT3 (Homo sapiens, UniProt P36888, D835Y); test: Inhibition of recombinant human FLT3 D835Y mutant (564 to end residues) using EAIYAAPFAKKK as substrate after 40 mins in presence of [gamma-33ATP] by radiometric scintillation counting analysis
[5] = target: Eukaryotic translation initiation factor 2-alpha kinase 3 (Homo sapiens, UniProt Q9NZJ5); test: Inhibition of human PEK (536 to end residues) using RSRSRSRSRSRSRSR as substrate measured after 40 mins in presence of [gamma33P]ATP by radiometric scintillation counting analysis
Sequence of Eukaryotic translation initiation factor 2-alpha kinase 3 (Q9NZJ5 whole entry, the tested form may be a part): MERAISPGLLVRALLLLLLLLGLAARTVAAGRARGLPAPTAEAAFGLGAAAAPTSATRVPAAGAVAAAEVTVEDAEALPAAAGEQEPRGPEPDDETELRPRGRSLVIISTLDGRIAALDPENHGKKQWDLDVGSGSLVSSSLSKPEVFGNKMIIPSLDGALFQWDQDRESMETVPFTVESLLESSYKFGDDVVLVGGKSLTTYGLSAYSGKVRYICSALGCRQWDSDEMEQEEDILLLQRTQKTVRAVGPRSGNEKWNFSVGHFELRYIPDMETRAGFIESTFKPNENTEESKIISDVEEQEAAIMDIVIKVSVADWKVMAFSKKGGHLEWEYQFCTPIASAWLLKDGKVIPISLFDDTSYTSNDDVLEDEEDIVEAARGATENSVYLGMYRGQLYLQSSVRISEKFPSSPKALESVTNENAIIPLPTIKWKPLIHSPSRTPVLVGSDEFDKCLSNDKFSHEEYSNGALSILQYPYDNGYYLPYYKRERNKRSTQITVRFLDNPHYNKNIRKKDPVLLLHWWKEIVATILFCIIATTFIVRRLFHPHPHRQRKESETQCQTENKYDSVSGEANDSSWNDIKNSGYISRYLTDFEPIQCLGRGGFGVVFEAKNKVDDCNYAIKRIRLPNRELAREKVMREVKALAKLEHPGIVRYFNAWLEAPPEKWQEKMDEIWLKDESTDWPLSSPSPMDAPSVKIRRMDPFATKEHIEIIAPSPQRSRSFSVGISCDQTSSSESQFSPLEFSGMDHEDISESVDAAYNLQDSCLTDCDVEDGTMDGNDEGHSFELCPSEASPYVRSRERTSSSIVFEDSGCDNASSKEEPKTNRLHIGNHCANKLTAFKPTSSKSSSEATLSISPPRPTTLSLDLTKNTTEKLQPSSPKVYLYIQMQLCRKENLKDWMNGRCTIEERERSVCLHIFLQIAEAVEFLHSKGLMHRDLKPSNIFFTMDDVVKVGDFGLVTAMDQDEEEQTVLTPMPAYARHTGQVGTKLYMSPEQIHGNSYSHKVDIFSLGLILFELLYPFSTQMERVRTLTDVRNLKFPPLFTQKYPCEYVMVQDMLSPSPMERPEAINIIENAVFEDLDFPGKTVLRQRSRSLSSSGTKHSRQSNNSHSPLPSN

[6] = target: Tau-tubulin kinase 2 (Homo sapiens, UniProt Q6IQ55); test: Inhibition of recombinant human TTBK2 (1 to331 residues) using casein as substrate incubated for 40 mins in presence of [gamma33P]ATP by radiometric scintillation counting analysis
[7] = target: Serine/threonine-protein kinase PAK 6 (Homo sapiens, UniProt Q9NQU5); test: Inhibition of recombinant human PAK6 (382 to end residues) using RRRLSFAEPG as substrate measured after 40 mins in presence of [gamma33P]ATP by radiometric scintillation counting analysis
[8] = target: Serine/threonine-protein kinase Chk1 (Homo sapiens, UniProt O14757); test: Inhibition of recombinant full length human CHK1 using KKKVSRSGLYRSP as substrate incubated for 40 mins in presence of [gamma-33ATP] by radiometric scintillation counting analysis
Sequence of Serine/threonine-protein kinase Chk1 (O14757 whole entry): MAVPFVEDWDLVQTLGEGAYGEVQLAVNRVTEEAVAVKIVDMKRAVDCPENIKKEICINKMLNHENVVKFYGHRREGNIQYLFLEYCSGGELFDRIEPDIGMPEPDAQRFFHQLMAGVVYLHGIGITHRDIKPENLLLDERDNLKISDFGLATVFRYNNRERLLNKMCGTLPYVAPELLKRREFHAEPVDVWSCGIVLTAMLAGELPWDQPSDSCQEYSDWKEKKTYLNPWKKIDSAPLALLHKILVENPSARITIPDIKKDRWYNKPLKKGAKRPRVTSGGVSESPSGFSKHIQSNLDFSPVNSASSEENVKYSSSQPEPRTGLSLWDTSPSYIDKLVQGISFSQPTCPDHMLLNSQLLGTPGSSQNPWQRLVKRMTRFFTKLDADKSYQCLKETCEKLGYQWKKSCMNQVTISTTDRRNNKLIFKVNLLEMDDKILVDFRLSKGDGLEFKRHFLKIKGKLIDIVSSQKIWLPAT

[9] = target: Cyclin-dependent kinase-like 3 (Homo sapiens, UniProt Q8IVW4); test: Inhibition of recombinant full length human CDKL3 using RRRFRPASPLRGPPK as substrate incubated for 120 mins in presence of [gamma-33ATP] by radiometric scintillation counting analysis
Sequence of Cyclin-dependent kinase-like 3 (Q8IVW4 whole entry): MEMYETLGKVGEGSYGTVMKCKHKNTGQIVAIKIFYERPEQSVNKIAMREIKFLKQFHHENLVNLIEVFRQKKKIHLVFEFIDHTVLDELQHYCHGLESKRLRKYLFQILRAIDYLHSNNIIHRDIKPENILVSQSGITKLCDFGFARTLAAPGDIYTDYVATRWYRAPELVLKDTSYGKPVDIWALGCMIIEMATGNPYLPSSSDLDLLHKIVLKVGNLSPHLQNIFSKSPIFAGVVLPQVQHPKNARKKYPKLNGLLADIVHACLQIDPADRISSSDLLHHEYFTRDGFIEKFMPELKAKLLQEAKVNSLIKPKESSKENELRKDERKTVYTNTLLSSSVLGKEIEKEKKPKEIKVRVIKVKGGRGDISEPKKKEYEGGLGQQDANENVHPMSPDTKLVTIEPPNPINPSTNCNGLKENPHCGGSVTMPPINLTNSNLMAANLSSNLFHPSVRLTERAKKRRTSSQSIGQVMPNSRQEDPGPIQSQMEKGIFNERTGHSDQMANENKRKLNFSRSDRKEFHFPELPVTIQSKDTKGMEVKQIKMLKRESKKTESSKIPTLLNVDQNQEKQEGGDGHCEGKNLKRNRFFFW

[10] = target: Serine/threonine-protein kinase DCLK2 (Homo sapiens, UniProt Q8N568); test: Inhibition of recombinant human DCAMKL2 (376 to end residues) using KKLNRTLSFAEPG as substrate after 40 mins in presence of [gamma-33ATP] by radiometric scintillation counting analysis
[11] = target: Mitogen-activated protein kinase 10 (Homo sapiens, UniProt P53779); test: Inhibition of recombinant full length human JNK3 using peptide substrate after 40 mins by [gamma-33ATP] by radiometric scintillation counting analysis
[12] = target: Serine/threonine-protein kinase Nek7 (Homo sapiens, UniProt Q8TDX7); test: Inhibition of recombinant human NEK7 (2 to end residues) using FLAKSFGSPNRAYKK as substrate measured after 40 mins in presence of [gamma33P]ATP by radiometric scintillation counting analysis
[13] = target: CDK6/cyclin D3 (Homo sapiens, UniProt Q00534); test: Inhibition of recombinant full length human CDK6/cyclinD3 using histone H1 as substrate incubated for 40 mins in presence of [gamma-33ATP] by radiometric scintillation counting analysis; type: protein-complex assay
[14] = target: Cyclin-dependent kinase 5/CDK5 activator 1 (Homo sapiens, UniProt Q00535); test: Inhibition of recombinant full length human CDK5/p25 using histone H1 as substrate incubated for 40 mins in presence of [gamma-33ATP] by radiometric scintillation counting analysis; type: protein-complex assay
[15] = target: Mast/stem cell growth factor receptor Kit (Homo sapiens, UniProt P10721, V560G); test: Inhibition of recombinant human C-Kit V560G mutant (544 to end residues) using poly(Glu, Tyr) 4:1 as substrate incubated 40 mins in presence of [gamma-33ATP] by radiometric scintillation counting analysis
[16] = target: Misshapen-like kinase 1 (Homo sapiens, UniProt Q8N4C8); test: Inhibition of recombinant human MINK (1 to 310 residues) using myelin basic protein as substrate incubated for 40 mins in presence of [gamma-33ATP by radiometric scintillation counting analysis
[17] = target: Tyrosine-protein kinase Fer (Homo sapiens, UniProt P16591); test: Inhibition of recombinant human FER (541 to end residues) using KKKSPGEYVNIEF as substrate after 40 mins in presence of [gamma-33ATP] by radiometric scintillation counting analysis
[18] = target: Protein-tyrosine kinase 6 (Homo sapiens, UniProt Q13882); test: Inhibition of recombinant full length human BRK using poly(Glu, Tyr) 4:1 as substrate incubated for 40 mins in presence of [gamma-33ATP] by radiometric scintillation counting analysis
[19] = Inhibition of recombinant full-length human ATR/ATRIP M211T mutant using GST-cMyc-p53 as substrate incubated for 40 mins by fluorescence assay
[20] = target: Mitogen-activated protein kinase kinase kinase 20 (Homo sapiens, UniProt Q9NYL2); test: Inhibition of recombinant full-length human ZAK using MBP as substrate incubated for 40 mins in presence of [gamma33P]ATP by radiometric scintillation counting analysis
[21] = target: Dual specificity tyrosine-phosphorylation-regulated kinase 1B (Homo sapiens, UniProt Q9Y463); test: Inhibition of recombinant full length human DYRK1B using RRRFRPASPLRGPP as substrate after 40 mins in presence of [gamma-33ATP] by radiometric scintillation counting analysis
Sequence of Dual specificity tyrosine-phosphorylation-regulated kinase 1B (Q9Y463 whole entry, the tested form may be a part): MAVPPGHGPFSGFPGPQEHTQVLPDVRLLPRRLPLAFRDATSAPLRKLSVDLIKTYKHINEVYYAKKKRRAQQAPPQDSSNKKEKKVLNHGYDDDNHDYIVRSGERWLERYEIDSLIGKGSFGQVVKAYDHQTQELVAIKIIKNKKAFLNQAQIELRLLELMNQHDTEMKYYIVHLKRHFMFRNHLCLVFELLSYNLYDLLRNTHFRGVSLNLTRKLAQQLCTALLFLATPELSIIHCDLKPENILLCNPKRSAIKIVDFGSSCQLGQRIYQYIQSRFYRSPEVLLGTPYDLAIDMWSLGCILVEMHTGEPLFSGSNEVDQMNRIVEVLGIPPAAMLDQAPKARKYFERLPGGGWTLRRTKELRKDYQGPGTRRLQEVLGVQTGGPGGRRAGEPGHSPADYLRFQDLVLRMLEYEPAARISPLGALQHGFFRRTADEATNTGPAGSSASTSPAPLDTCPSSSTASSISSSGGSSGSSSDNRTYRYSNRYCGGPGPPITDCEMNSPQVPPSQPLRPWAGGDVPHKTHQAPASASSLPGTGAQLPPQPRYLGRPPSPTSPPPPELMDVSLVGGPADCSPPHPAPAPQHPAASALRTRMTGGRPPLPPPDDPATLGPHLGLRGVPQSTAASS

[22] = target: Cyclin-dependent kinase-like 1 (Homo sapiens, UniProt Q00532); test: Inhibition of recombinant human CDKL1 (1 to 303 residues) using RRRFRPASPLRGP as substrate incubated for 120 mins in presence of [gamma-33ATP] by radiometric scintillation counting analysis
Sequence of Cyclin-dependent kinase-like 1 (Q00532 whole entry, the tested form may be a part): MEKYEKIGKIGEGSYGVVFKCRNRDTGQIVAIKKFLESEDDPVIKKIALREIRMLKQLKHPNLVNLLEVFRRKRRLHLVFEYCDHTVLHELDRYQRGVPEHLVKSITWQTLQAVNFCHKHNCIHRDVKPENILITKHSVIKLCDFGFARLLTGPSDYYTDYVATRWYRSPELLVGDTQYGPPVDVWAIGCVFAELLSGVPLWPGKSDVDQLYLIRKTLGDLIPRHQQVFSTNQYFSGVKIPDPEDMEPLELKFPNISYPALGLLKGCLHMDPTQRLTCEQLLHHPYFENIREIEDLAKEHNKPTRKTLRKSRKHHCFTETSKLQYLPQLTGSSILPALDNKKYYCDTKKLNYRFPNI

[23] = target: Dual specificity tyrosine-phosphorylation-regulated kinase 2 (Homo sapiens, UniProt Q92630); test: Inhibition of recombinant full length human DYRK2 using casein as substrate after 40 mins in presence of [gamma-33ATP] by radiometric scintillation counting analysis
Sequence of Dual specificity tyrosine-phosphorylation-regulated kinase 2 (Q92630 whole entry): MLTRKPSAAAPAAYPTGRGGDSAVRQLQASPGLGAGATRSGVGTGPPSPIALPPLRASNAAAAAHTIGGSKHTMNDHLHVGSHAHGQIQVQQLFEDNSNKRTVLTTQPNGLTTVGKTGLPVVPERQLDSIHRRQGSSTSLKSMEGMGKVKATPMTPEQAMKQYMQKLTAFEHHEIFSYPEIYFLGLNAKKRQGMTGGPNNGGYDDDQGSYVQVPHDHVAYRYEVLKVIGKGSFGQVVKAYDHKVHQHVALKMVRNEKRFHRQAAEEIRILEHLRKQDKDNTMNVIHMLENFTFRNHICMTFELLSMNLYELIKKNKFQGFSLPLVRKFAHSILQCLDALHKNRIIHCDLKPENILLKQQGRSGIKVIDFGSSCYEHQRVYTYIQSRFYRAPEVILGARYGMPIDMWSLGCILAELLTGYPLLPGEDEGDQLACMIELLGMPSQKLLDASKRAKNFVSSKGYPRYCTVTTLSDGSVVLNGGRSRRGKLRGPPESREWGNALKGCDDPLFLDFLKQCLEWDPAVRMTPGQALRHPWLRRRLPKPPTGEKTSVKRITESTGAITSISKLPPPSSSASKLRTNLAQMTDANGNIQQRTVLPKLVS

[24] = target: Serine/threonine-protein kinase Sgk1 (Homo sapiens, UniProt O00141, S422D); test: Inhibition of recombinant human SGK S422D mutant (60 to end residues) using GRPRTSSFAEGKK as substrate incubated for 40 mins in presence of [gamma33P]ATP by radiometric scintillation counting analysis
[25] = target: Death-associated protein kinase 3 (Homo sapiens, UniProt O43293); test: Inhibition of recombinant human ZIPK (1 to 290 residues) using KKLNRTLSFAEPG substrate incubated for 40 mins in presence of [gamma33P]ATP by radiometric scintillation counting analysis
Sequence of Death-associated protein kinase 3 (O43293 whole entry, the tested form may be a part): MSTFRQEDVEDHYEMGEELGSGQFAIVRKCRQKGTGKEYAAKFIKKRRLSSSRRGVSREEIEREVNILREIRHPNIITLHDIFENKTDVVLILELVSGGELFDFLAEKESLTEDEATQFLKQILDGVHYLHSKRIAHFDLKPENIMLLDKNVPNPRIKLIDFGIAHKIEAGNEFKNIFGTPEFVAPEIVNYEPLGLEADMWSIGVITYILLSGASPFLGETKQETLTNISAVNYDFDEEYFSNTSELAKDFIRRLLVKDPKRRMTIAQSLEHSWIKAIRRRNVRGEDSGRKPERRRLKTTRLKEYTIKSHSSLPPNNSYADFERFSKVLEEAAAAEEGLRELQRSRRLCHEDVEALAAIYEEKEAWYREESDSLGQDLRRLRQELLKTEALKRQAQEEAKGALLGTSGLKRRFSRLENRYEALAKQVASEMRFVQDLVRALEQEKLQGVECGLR

[26] = target: Interleukin-1 receptor-associated kinase 1 (Homo sapiens, UniProt P51617); test: Inhibition of human recombinant IRAK1 (194 to end residues) using myelin basic protein as substrate after 40 mins by [gamma-33ATP] by radiometric scintillation counting analysis
[27] = Inhibition of human PIP5K1

Measured: IC50

CN(C)c1ccc(C(=O)Nc2cccc(NC(=O)COc3ccc4c(=O)ccoc4c3)c2)cc1
> 10 µM: all assays above
